Results on four compounds are retold here after article PMC10865806, “Structural insights into the molecular mechanism of high-level ceftazidime–avibactam resistance conferred by CMY-185” (mBio, 2024).

Common to all, as to format: biochemical, Escherichia coli
Data set [1] concerns O=C(Cc1cccs1)N[C@@H]1C(=O)N2C(C(=O)O)=C(/C=C/c3ccc([N+](=O)[O-])cc3[N+](=O)[O-])CS[C@H]12. Put plainly: Steady-state hydrolysis kinetics. The note with it: other: CMY-2, PBS pH 7.2, 25°C. From the text:
(§1) We tested the enzymes, CMY-2, two single mutants V211S (CMY-42) and N346Y, three double mutants A114E_N346Y, Q120K_N346Y, and V211S_N346Y, and the quadruplet mutant CMY-185 to elucidate the impact on the kinetic properties resulting from the four amino acid substitutions present in CMY-185 compared with CMY-2 ([8]). The steady-state kinetic parameters kcat and Km (or Ki app) for nitrocefin, cephalothin, ceftazidime, and cefiderocol and the inhibition parameters Ki app, k2/K, k−2, and koff for avibactam are summarized in Table 1. During the hydrolysis of nitrocefin, we observed the reduction of the initial velocity at concentrations above 50 µM particularly for the CMY-2 variants harboring the N346Y substitution. As this could have represented substrate inhibition, we then determined the kinetics parameters for nitrocefin using the Haldane equation ([16]). […] In addition, during the hydrolysis of cefiderocol by CMY-185, the initial velocities at a concentration range of 3.7–59.4 µM were similar.
(§2) The steady-state kinetics were carried out on a UV-Visible spectrometer (UV-1280, Shimadzu, Japan) in PBS pH 7.2 at 25°C with a constant amount of enzyme and varying concentrations of the substrates. We tested nitrocefin, cephalothin, ceftazidime, and cefiderocol as the substrates and avibactam as the inhibitor. The steady-state kinetics parameters Km and kcat were determined with the Michaelis-Menten equation. For poorly hydrolyzed substrates, the Km value was assumed to be the competitive inhibition constant (Ki app) value according to previous studies ([17], [19]). Inhibition parameter values of Ki app, k2/K, k−2, and koff for avibactam were determined using a method as described previously ([33]). Cephalothin was used as the reporter substrate for competitive inhibition experiments, and its concentration was fixed at 100 µM. […] Inverse steady-state initial velocities were plotted against the concentration of the competitive inhibitor agents, such as ceftazidime, cefiderocol, and avibactam. The data were analyzed by linear regression analysis of the Dixon plot, and Ki app (observed) was determined by dividing the y-intercept value by the slope of the line. It was then corrected to account for the affinity of cephalothin for each enzyme using the Equation (1): […]

Data set [2] has as its system CC(=O)OCC1=C(C(=O)O)N2C(=O)[C@@H](NC(=O)Cc3cccs3)[C@H]2SC1. The experiment in a line: Steady-state hydrolysis kinetics. The note with it: other: CMY-2, PBS pH 7.2, 25°C.
Text: as §1, §2

Data set [3] concerns the target T1, CMY-2 variant V211S_N346Y (Klebsiella pneumoniae, UniProt Q48434, N366Y/V231S).
T1 construct: all CMY-2 variant genes encoding the mature enzyme without a signal peptide were cloned into the protein expression plasmid vector pET-30b; made in house; host or cells: E. coli BL21 (DE3), pET-30b
The experiment in a line: Steady-state hydrolysis kinetics. The note with it: V211S_N346Y; for Km / kcat: PBS pH 7.2, 25°C.
Text: as §1
(§3) The steady-state kinetics were carried out on a UV-Visible spectrometer (UV-1280, Shimadzu, Japan) in PBS pH 7.2 at 25°C with a constant amount of enzyme and varying concentrations of the substrates. We tested nitrocefin, cephalothin, ceftazidime, and cefiderocol as the substrates and avibactam as the inhibitor. The steady-state kinetics parameters Km and kcat were determined with the Michaelis-Menten equation. For poorly hydrolyzed substrates, the Km value was assumed to be the competitive inhibition constant (Ki app) value according to previous studies ([17], [19]). Inhibition parameter values of Ki app, k2/K, k−2, and koff for avibactam were determined using a method as described previously ([33]). Cephalothin was used as the reporter substrate for competitive inhibition experiments, and its concentration was fixed at 100 µM. The enzyme concentration was 1–10 nM. Inverse steady-state initial velocities were plotted against the concentration of the competitive inhibitor agents, such as ceftazidime, cefiderocol, and avibactam. The data were analyzed by linear regression analysis of the Dixon plot, and Ki app (observed) was determined by dividing the y-intercept value by the slope of the line. It was then corrected to account for the affinity of cephalothin for each enzyme using the Equation (1): […]

Data set [4] addresses T2, CMY-2 variant Q120K_N346Y (Klebsiella pneumoniae, UniProt Q48434, N366Y/Q140K).
T2 construct: all CMY-2 variant genes encoding the mature enzyme without a signal peptide were cloned into the protein expression plasmid vector pET-30b; made in house; host or cells: E. coli BL21 (DE3), pET-30b
Put plainly: Steady-state hydrolysis kinetics. The note with it: for Km / kcat: PBS pH 7.2, 25°C.
Text: as §1, §3

A further data set concerns the target T3, CMY-185 (Klebsiella pneumoniae, UniProt Q48434, A134E/N366Y/Q140K/V231S).
T3 construct: all CMY-2 variant genes encoding the mature enzyme without a signal peptide were cloned into the protein expression plasmid vector pET-30b; made in house; host or cells: E. coli BL21 (DE3), pET-30b
The experiment in a line: Steady-state hydrolysis kinetics. The note with it: for Km / kcat: PBS pH 7.2, 25°C.
Text: as §1, §3

For the next data set, the target named is T4, V211S (CMY-42) (Klebsiella pneumoniae, UniProt Q48434, V231S).
T4 construct: all CMY-2 variant genes encoding the mature enzyme without a signal peptide were cloned into the protein expression plasmid vector pET-30b; made in house; host or cells: E. coli BL21 (DE3), pET-30b
Put plainly: Steady-state hydrolysis kinetics. The note with it: for Km / kcat: PBS pH 7.2, 25°C.
Text: as §1, §3

In data set [5] the target is T5, CMY-2 variant A114E_N346Y (Klebsiella pneumoniae, UniProt Q48434, A134E/N366Y).
T5 construct: all CMY-2 variant genes encoding the mature enzyme without a signal peptide were cloned into the protein expression plasmid vector pET-30b; made in house; host or cells: E. coli BL21 (DE3), pET-30b
The experiment in a line: Steady-state hydrolysis kinetics. The note with it: for Km / kcat: PBS pH 7.2, 25°C.
Text: as §1, §2

Data set [6] addresses T6, CMY-2 variant N346Y (Klebsiella pneumoniae, UniProt Q48434, N366Y).
T6 construct: all CMY-2 variant genes encoding the mature enzyme without a signal peptide were cloned into the protein expression plasmid vector pET-30b; made in house; host or cells: E. coli BL21 (DE3), pET-30b
Put plainly: Steady-state hydrolysis kinetics. The note with it: for Km / kcat: PBS pH 7.2, 25°C.
Text: as §1, §2

The target of data set [7] is T7, CMY-2 (Klebsiella pneumoniae, UniProt Q48434).
T7 construct: all CMY-2 variant genes encoding the mature enzyme without a signal peptide were cloned into the protein expression plasmid vector pET-30b; made in house; host or cells: E. coli BL21 (DE3), pET-30b
Put plainly: Steady-state hydrolysis kinetics.
Text: as §1, §2

Data set [8] deals with T5, CMY-2 variant A114E_N346Y. Put plainly: Competitive inhibition of cephalothin hydrolysis and avibactam inhibition kinetics. The note with it: reporter substrate cephalothin 100 µM, Dixon plot, read-out: Ki app.
Text: as §1
(§4) The steady-state kinetics were carried out on a UV-Visible spectrometer (UV-1280, Shimadzu, Japan) in PBS pH 7.2 at 25°C with a constant amount of enzyme and varying concentrations of the substrates. We tested nitrocefin, cephalothin, ceftazidime, and cefiderocol as the substrates and avibactam as the inhibitor. The steady-state kinetics parameters Km and kcat were determined with the Michaelis-Menten equation. For poorly hydrolyzed substrates, the Km value was assumed to be the competitive inhibition constant (Ki app) value according to previous studies ([17], [19]). Inhibition parameter values of Ki app, k2/K, k−2, and koff for avibactam were determined using a method as described previously ([33]). Cephalothin was used as the reporter substrate for competitive inhibition experiments, and its concentration was fixed at 100 µM. The enzyme concentration was 1–10 nM. Inverse steady-state initial velocities were plotted against the concentration of the competitive inhibitor agents, such as ceftazidime, cefiderocol, and avibactam. The data were analyzed by linear regression analysis of the Dixon plot, and Ki app (observed) was determined by dividing the y-intercept value by the slope of the line. It was then corrected to account for the affinity of cephalothin for each enzyme using the Equation (1):
(§5) (1) Ki app=Ki app (observed)/{1+[S]/Km (cephalothin)}
(§6) where [S] represents the concentration of the reporter substrate cephalothin, and Km (cephalothin) is the Km value of cephalothin for each enzyme.
(§7) The koff value was determined using a jump dilution assay. The enzyme and avibactam were mixed and preincubated at 25°C for 5 min. The concentration of avibactam depended on the enzyme and concentrations 10-fold higher from each Ki app (observed) value were adopted, which were determined based on the corrected competitive inhibition constants Ki app. Preincubated enzyme-avibactam mixture was then diluted 2,000-fold in the 100 µM cephalothin solution, and the hydrolysis of cephalothin was measured. Three independent measurements were performed for each enzyme and substrate or inhibitor combination. Curve fittings using linear or non-linear regression were performed with R 4.1.3 (R Core Team, 2022).

In data set [9] the target is T7, CMY-2. Described as above. The note with it: reporter substrate cephalothin 100 µM, Dixon plot, read-out: Ki app.
Text: as §1, §4, §5, §6, §7

For data set [10], the target named is T6, CMY-2 variant N346Y. Described as above. The note with it: N346Y; reporter substrate cephalothin 100 µM, Dixon plot; read-out: Ki app.
Text: as §1, §4, §5, §6, §7

Where [11] appears, read: substrate 100 µM, 100–200 nM enzyme.
Setting [12] is: substrate inhibition, Haldane equation.

Consider CMY-2 (Klebsiella pneumoniae), for which, in data set [1], the Michaelis-Menten constant (Km) (usually the concentration of substrate that gives half-maximal velocity) is 17 ± 5 µM; the kcat (in general, the maximal rate divided by the concentration of active sites) is 240 ± 50 s⁻¹; the kcat/Km (usually the turnover number divided by the Michaelis constant) amounted to 1.4e+07 ± 5e+06 M⁻¹ s⁻¹. Also, in data set [2], the Km was 4.1 ± 0.3 µM, the kcat was 54 ± 0.8 s⁻¹ and the kcat/Km amounted to 1.3e+07 ± 1e+06 M⁻¹ s⁻¹.
In the case of `CC(=O)OCC1=C(C(=O)O)N2C(=O)[C@@H](NC(=O)Cc3cccs3)[C@H]2SC1` [Cephalothin, cephalothin], the Michaelis-Menten constant (Km) was 4.4 ± 0.3 µM in data set [3]; 18 ± 3 µM in [4]; 19 ± 1 µM at CMY-185; 7.5 ± 1.1 µM on V211S (CMY-42); 1.4 ± 0.1 µM in data set [5]; 3.9 ± 0.1 µM on CMY-2 variant N346Y [6]. Further, the kcat in [3] is 9.6 ± 0.2 s⁻¹; in [4], 42 ± 5 s⁻¹; at CMY-185 it was 14 ± 1 s⁻¹; on V211S (CMY-42) it was 83 ± 7 s⁻¹; in data set [5] it was 3.3 ± 0.1 s⁻¹; at CMY-2 variant N346Y [6] it was 18 ± 7 s⁻¹.
Turning to `CC(C)(O/N=C(\C(=O)N[C@@H]1C(=O)N2C(C(=O)[O-])=C(C[n+]3ccccc3)CS[C@H]12)c1csc(N)n1)C(=O)O` [Ceftazidime, ceftazidime], the Km in [3] was found to be 37 ± 2 µM; in data set [4] it was 5.3 ± 0.5 µM; at CMY-185 it was 2.2 ± 0.3 µM; at V211S (CMY-42), 74 ± 10 µM. The kcat in [3] was 0.3 ± 0.0 s⁻¹; in data set [4], 0.077 ± 0.003 s⁻¹; on CMY-185, 0.1 ± 0.0 s⁻¹; at V211S (CMY-42), 1.5 ± 0.2 s⁻¹. The hydrolysis entry (in [5] (setting [11]); on CMY-2 [7] (setting [11]); at CMY-2 variant N346Y [6] (setting [11])) was “no apparent hydrolysis” in each case. For the same compound, the values for the Ki (in data set [8]; at CMY-2 [9]; on CMY-2 variant N346Y [10]) were 0.3 µM, 0.7 ± 0.1 µM and 0.7 ± 0.2 µM, respectively.
Regarding `O=C(Cc1cccs1)N[C@@H]1C(=O)N2C(C(=O)O)=C(/C=C/c3ccc([N+](=O)[O-])cc3[N+](=O)[O-])CS[C@H]12` [Nitrocefin, nitrocefin], the Km in data set [3] was determined as 35 ± 10 µM; in data set [4], 50 ± 40 µM; at CMY-185, 39 ± 24 µM; on V211S (CMY-42) it was 29 ± 12 µM; in [5] it was 16 ± 4 µM; at CMY-2 variant N346Y [6], 25 ± 3 µM. Moreover, the kcat came out at 85 ± 18 s⁻¹ in data set [3]; 120 ± 90 s⁻¹ in data set [4]; 17 ± 9 s⁻¹ on CMY-185; 320 ± 102 s⁻¹ on V211S (CMY-42); 57 ± 10 s⁻¹ in data set [5]; 61 ± 5 s⁻¹ at CMY-2 variant N346Y [6]. Further, the Ki in data set [3] (setting [12]) worked out at 100 µM; in data set [4] (setting [12]) it was 14 ± 12 µM; at CMY-185 (setting [12]) it was 18 ± 13 µM; at V211S (CMY-42) (setting [12]), 130 µM; in [5] (setting [12]), 68 ± 37 µM; at CMY-2 [7] (setting [12]), 160 µM. The Ki on CMY-2 variant N346Y [6] (setting [12]) worked out at 87 ± 25 µM.
